Assay results reported in ChEMBL document CHEMBL3232992, “Synthesis and the hepatoprotective activity of dibenzocyclooctadiene lignan derivatives” (2014).

system: L02; assay: Hepatoprotective activity against carbon tetrachloride-induced toxicity in human HL-7702 cells assessed as increase of cell survival rate at 0.2 ug/ul pretreated for 12 hrs before carbon tetrachloride addition by MTS assay relative to control; format: functional

Row | Compound | Survival
1 | COc1c(Cl)c2c(c(OC)c1OC)-c1c(c(Cl)c(OC)c(OC)c1OC)C[C@](C)(O)[C@@H](C)C2 | 44%
2 | COc1cc2c(c(OC)c1OC)-c1c(c(Cl)c(OC)c(OC)c1OC)C[C@](C)(O)[C@@H](C)C2 | 44%
3 | COc1c(Br)c2c(c(OC)c1OC)-c1c(c(Br)c(OC)c(OC)c1OC)C[C@](C)(O)[C@@H](C)C2 | 54.2%
4 | COc1cc2c(c(OC)c1OC)-c1c(c(Br)c(OC)c(OC)c1OC)C[C@](C)(O)[C@@H](C)C2 | 50%
5 | COc1c(I)c2c(c(OC)c1OC)-c1c(c(I)c(OC)c(OC)c1OC)C[C@](C)(O)[C@@H](C)C2 | 45%
6 | COc1cc2c(c(OC)c1OC)-c1c(c(I)c(OC)c(OC)c1OC)C[C@](C)(O)[C@@H](C)C2 | 40.9%
7 | COC1=C(OC)C23C(=CC1=O)CC(C)C2(C)Cc1cc(OC)c(OC)c(OC)c13 (stereo unspecified) | 34.6%
8 | COc1c(Br)c2c(c(OC)c1OC)-c1c(c(OC)c(OC)c(OC)c1OC)C[C@](C)(O)[C@@H](C)C2 | 73.6%
9 | COc1c(Cl)c2c(c(OC)c1OC)-c1c(c(Cl)c3c(c1OC)OCO3)C[C@H](C)[C@H](C)C2 | 51.8%
10 | COc1c(Cl)c2c(c(OC)c1OC)-c1c(cc3c(c1OC)OCO3)C[C@H](C)[C@H](C)C2 | 43.4%
11 | COc1c(Br)c2c(c(OC)c1OC)-c1c(c(Br)c3c(c1OC)OCO3)C[C@H](C)[C@H](C)C2 | 63.4%
12 | COc1c(Br)c2c(c(OC)c1OC)-c1c(cc3c(c1OC)OCO3)C[C@H](C)[C@H](C)C2 | 49.1%
13 | COc1c(I)c2c(c(OC)c1OC)-c1c(c(I)c3c(c1OC)OCO3)C[C@H](C)[C@H](C)C2 | 90%
14 | COc1c(OC)c(C(C)=O)c2c(c1OC)-c1c(cc3c(c1OC)OCO3)C[C@H](C)[C@H](C)C2 | 44.4%
15 | COc1cc2c(c(OC)c1OC)-c1c(cc(OC)c(OC)c1OC(C)=O)C[C@H](C)[C@H](C)C2 | 65%
16 | COc1c(O)c2c(c(Cl)c1OC)C[C@H](C)[C@H](C)Cc1c(Cl)c(OC)c(OC)c(OC)c1-2 | 98.5%
17 | COc1cc2c(c(OC)c1OC)-c1c(O)c(OC)c(OC)c(Cl)c1C[C@H](C)[C@H](C)C2 | 63%
18 | COc1c(O)c2c(c(Br)c1OC)C[C@H](C)[C@H](C)Cc1c(Br)c(OC)c(OC)c(OC)c1-2 | 83%
19 | COc1cc2c(c(OC)c1OC)-c1c(O)c(OC)c(OC)c(Br)c1C[C@H](C)[C@H](C)C2 | 82%
20 | COc1c(O)c2c(c(I)c1OC)C[C@H](C)[C@H](C)Cc1c(I)c(OC)c(OC)c(OC)c1-2 | 50%
21 | COC1=C(OC)C(OC(C)=O)C2=C(C[C@H](C)[C@H](C)Cc3cc(OC)c(OC)c(OC)c32)C1=O (stereo partly specified) | 52.7%
22 | COC1=C(OC)C(=O)C2=C(C[C@H](C)[C@H](C)Cc3cc(OC)c(OC)c(OC)c32)C1=O | 85.5%
23 | COC(=O)c1cc(OC)c2c(c1-c1c(C(=O)OC)cc(OC)c3c1OCO3)OCO2 [BIFENDATE] | 40.3%
24 | COc1cc2c(c(O)c1OC)-c1c(cc(OC)c(OC)c1OC)C[C@@H](C)[C@@H](C)C2 [SCHISANHENOL] | 48.1%
25 | COc1cc2c(c(OC)c1OC)-c1c(cc(OC)c(OC)c1OC)C[C@](C)(O)[C@@H](C)C2 [SCHIZANDRIN] | 43.3%
26 | COc1cc2c(c(OC)c1OC)-c1c(cc3c(c1OC)OCO3)C[C@H](C)[C@H](C)C2 [WUWEIZISU B] | 42.8%
